Measured values as given in ChEMBL document CHEMBL1151843, “Chromones from the endophytic fungus Pestalotiopsis sp. isolated from the chinese mangrove plant Rhizophora mucronata” (J Nat Prod, 2009).
Values after ≈ are worked out from the molar mass of the structure shown.

Test system: L5178Y; call rule not given here
Assay: Cytotoxicity against mouse L5178Y cells after 72 hrs by MTT assay
Type: functional, cell-based

Row | SMILES | EC50 (l5178y) | EC50 (Mus musculus, L5178Y, 72 h, read-out: EC50) [µg/mL]
1 | Cc1cc(O)cc2oc(C[C@H](C)O)cc(=O)c12 | Not Active | 
2 | CCCCCCCc1cc(=O)c2c(CC(=O)OC)cc(O)cc2o1 [PESTALOTIOPSONE A] | Not Active | 
3 | CCCCCCCc1cc(=O)c2c(CC(=O)OCC)cc(O)cc2o1 [PESTALOTIOPSONE B] | Not Active | 
4 | CCCCCCCc1cc(=O)c2c(CC(=O)O)cc(O)cc2o1 [PESTALOTIOPSONE C] | Not Active | 
5 | COC(=O)Cc1cc(O)cc2oc(CCCCCC(C)O)cc(=O)c12 (configuration not stated) [PESTALOTIOPSONE D] | Not Active | 
6 | CCOC(=O)Cc1cc(O)cc2oc(CCCCCC(C)O)cc(=O)c12 (configuration not stated) [PESTALOTIOPSONE E] | Not Active | 
7 | CCCCCc1cc(=O)c2c(CC(=O)OC)cc(O)cc2o1 [PESTALOTIOPSONE F] |  | 8.93 (≈ 29.3 µM)
